Reference: patent US10023615B2, “Efficient transport into white blood cells” (priority 2008, dated 2018)
Entries after “also recorded” stand apart in the source; their conditions may differ. Ends that are not written are not given here.

How the values were obtained:
[1] = test system: primary cultured macrophages; assay: Incorporation of XG-102 into primary cultured macrophages, antibody detection; format: cell-based; conditions: incubated and extensively washed; specific antibody
Procedure: FIG. 5: (A): Primary cultured macrophages were incubated with XG-102 (SEQ ID NO: 233) and extensively washed. […] (B): Mice were injected i.v. with 0.1 mg/kg FITC-D-TAT (SEQ ID NO: 4 plus FITC) and were sacrificed 24 hours later with PAF perfusion through the heart. Slices were obtained after cryoprotection using cryostat.

db/db mice = db/db mice model of type 2 diabetes, chronic treatment; format: in vivo, mouse; conditions: 10 mg/kg
TC-3 cells = assay: Inhibition of IL-1 induced pancreatic beta-cell death; format: cell-based; conditions: 1 μM single addition, IL-1 10 ng/ml, two days
Procedure: Inhibition of IL-1 induced pancreatic beta-cell death by the D-TAT-IB1(s) peptide was analyzed. TC-3 cells were incubated for 30 minutes with one single addition of the indicated peptides (1, μM), then IL-1 (10 ng/ml) was added.
Apoptotic cells were then counted after two days of incubation with IL-1 by use of Propidium Iodide and Hoechst 33342 nuclear staining. A minimum of 1,000 cells were counted for each experiment.
Long term inhibition of IL-1P induced cell-death by the D-TAT-IB1 peptide was also analyzed. TC-3 cells were incubated for 30 minutes with one single addition of the indicated peptides (1 μM), then IL-1 (10 ng/ml) was added, followed by addition of the cytokine every two days. Apoptotic cells were then counted after 15 days of incubation with IL-1 by use of propidium iodide and Hoechst 33342 nuclear staining. […] A minimum of 1.000 cells were counted for each experiment.

[2] = test system: noise trauma (120 dB at 6 kHz); assay: Treatment of noise trauma, auditory brainstem response; format: in vivo, guinea pigs; conditions: 100 μM in hyaluronic acid gel on round window membrane; before or after noise trauma
Procedure: 19. […] Untreated ears served as control. Hearing threshold shifts are evaluated by auditory brainstem response measurements 20 minutes after noise trauma (temporary threshold shift, TTS) and 15 days following the trauma (permanent threshold shift, PTS).

[3] = test system: bleomycin induced lung inflammation; assay: Bleomycin (BLM) induced acute lung inflammation; format: in vivo, C57BL/6 mice; conditions: for cell recruitment in bronchoalveolar lavage space: single dose, 1 day
From the text: In order to determine the activity of the exemplary all-D retro-inverso IB(s) peptide XG-102 (SEQ ID NO: 233) in the treatment of Chronic Obstructive Pulmonary Disease (COPD) XG-102 (SEQ ID NO: 233) is used in an animal model of Bleomycin induced acute lung inflammation and fibrosis. The protocol of bleomycin induced inflammation and fibrosis has been described before in the literature. The aim of the Experiment was to investigate the effect of XG-102 (SEQ ID NO: 233) by subcutaneous (s.c.) route on neutrophil recruitment in broncho alveolar lavage (BAL) and lung in bleomycin induced inflammation and fibrosis: • at 1 day after a single bleomycin administration (10 mg/kg) • and at day 10 with the development of fibrosis
1) Method and Experimental Approach • The test compound XG-102 (SEQ ID NO: 233) at two doses and vehicle control were given s.c. with a single intranasal administration of bleomycin and mice were analyzed after 1 and 10 days. The animals used in the model were 10 C57BL/6 mice (8 weeks old) per group. The experimental groups included vehicle, 0.001 mg/kg XG-102 (SEQ ID NO: 233) and 0.1 mg/kg XG-102 (SEQ ID NO: 233), and the treatment consisted of repeated sub-cutaneous administration of XG-102 (SEQ ID NO: 233), prior to bleomycin administration then every 3 days. Acute lung inflammation at 24 h was monitored by BAL lavage, cytology, cell counts, and lung myeloperoxidase activity. The effect of the compound was compared with vehicle controls. Lung fibrosis was assessed histologically using hematoxylin and eosin staining at day 10 after the single dose of bleomycin.
1.1) Bleomycin Administration • Bleomycin sulfate in saline (10 mg/kg body weight) from Bellon Laboratories (Montrouge, France) or saline were given through the airways by nasal instillation in a volume of 40 μL under light ketamine-xylasine anesthesia. The groups for Bleomycin administration for both bleomycin induced inflammation and fibrosis included: Vehicle, 0.001 mg/kg XG-102 (SEQ ID NO: 233) and 0.1 mg/kg XG-102 (SEQ ID NO: 233). The route for bleomycin induced inflammation was subcutaneous (s.c.) route, and administration occurred as a single dose. The route for bleomycin induced fibrosis was subcutaneous (s.c.) route, and administration occurred 3 times in 10 days.
1.2) Bronchoalveolar Lavage Fluid (BALE) • After incision of the trachea, a plastic cannula was inserted and airspaces were washed using 0.3 ml of PBS solution, heated to 37° C. The samples collected were dispatched in 2 fractions: the first one (1 ml corresponding to the 2 first lavages) was used for mediator measurement and the second one for the cell determination (4 ml). The first fraction was centrifuged (600 g for 10 min) and supernatant was fractionated and kept at −80° C. until mediator determination. The cell pellet was then resuspended in 0.4 ml sterile NaCl, 0,9%, and pooled with the second fraction and was used for cell counts.
1.3) Lung Homogenization • After BAL the whole lung was removed and placed inside a microtube (Lysing matrix D, Q Bio Gene, Illkrich, France) with 1 ml of PBS, total lung tissue extract was prepared using a Fastprep® system (FP120, Q Bio Gene, Illkrich, France), the extract was then centrifuged and the supernatant stored at −80° C. before mediator measurement and collagen assay with Sircol Collagen Assay (France Biochem Division, France).
1.4) Cell Count and Determination • Total cell count was determined in BAL fluid using a Malassez hemocytometer. Differential cell counts were performed on cytospin preparations (Cytospin 3, Thermo Shandon) after staining with MGG Diff-quick (Dade Behring AG). Differential cell counts were made on 200 cells using standard morphological criteria.
1.5) TNF Measurement • TNF level in BALF was determined using ELISA assay kits (Mouse DuoSet, R&D system, Minneapolis, USA) according to manufacturer's instructions. Results are reported as pg/ml. […]

Substance: dqsrpvqpflnIttprkprpprrrqrrkkrg (DQSRPVQPFLNLTTPRKPRPPRRRQRRKKRG; not fully specified (some residues); printed as dqsrpvqpflnIttprkprpprrrqrrkkrg) [XG-102]
- incorporation into cells [1]: strongly incorporated into primary macrophages
- plasma levels of insulin, MCP-1, IL-6, tPAI-1, TNF (db/db mice; day 57, 77 and 108): no significant effects
- plasma resistin (db/db mice; day 77 and 108): significantly higher
- 24 hour food and water intake, urine and faeces production (metabolic cages) (db/db mice; study day 68): no significant effects
- IL-1 induced apoptosis (TC-3 cells): decreased IL-1 induced apoptosis to a similar extent as L-TAT-IB peptides
- permanent hearing loss (permanent threshold shift) [2]: protected against permanent hearing loss even if applied after exposure to excessive noise
- cell recruitment in bronchoalveolar lavage space ([3]; 0.001 mg/kg s.c.): has no effect on neutrophil recruitment or other cell types into the bronchoalveolar space
- cell recruitment in bronchoalveolar lavage space ([3]; 0.1 mg/kg s.c.): reduces significantly the neutrophil recruitment and the number of total cells recruited; also recorded: decreases the neutrophil and total cell recruitment into the bronchoalveolar space
- MPO levels in the lung ([3]; MPO not significantly induced after bleomycin): no effect on MPO levels in the lung; also recorded: no effect on the MPO levels in the lung
- TNF level in BALF ([3]; TNF levels very low after BLM): a trend to reduction of the TNF level in BALF; also recorded: induces a trend to decrease the TNF level
- Bleomycin-induced inflammation (conclusion) ([3]; mouse, in vivo): reduces the Bleomycin-induced inflammation
- histology: inflammatory cell accumulation ([3]; peribronchial space): a decrease of the inflammatory cell accumulation in the peribronchial space
